From ChEMBL document CHEMBL1145146, “Synthesis of digalactosyl diacylglycerols and their structure-inhibitory activity on human lanosterol synthase” (Bioorg Med Chem Lett, 2005)

Tests used:
[1] = target: T1, Lanosterol synthase (Homo sapiens) (UniProt P48449); assay: Inhibitory activity against lanosteral synthase at 0.5 umol/assay; design: scale not given: the % may be the effect or the level left
T1 sequence (whole entry): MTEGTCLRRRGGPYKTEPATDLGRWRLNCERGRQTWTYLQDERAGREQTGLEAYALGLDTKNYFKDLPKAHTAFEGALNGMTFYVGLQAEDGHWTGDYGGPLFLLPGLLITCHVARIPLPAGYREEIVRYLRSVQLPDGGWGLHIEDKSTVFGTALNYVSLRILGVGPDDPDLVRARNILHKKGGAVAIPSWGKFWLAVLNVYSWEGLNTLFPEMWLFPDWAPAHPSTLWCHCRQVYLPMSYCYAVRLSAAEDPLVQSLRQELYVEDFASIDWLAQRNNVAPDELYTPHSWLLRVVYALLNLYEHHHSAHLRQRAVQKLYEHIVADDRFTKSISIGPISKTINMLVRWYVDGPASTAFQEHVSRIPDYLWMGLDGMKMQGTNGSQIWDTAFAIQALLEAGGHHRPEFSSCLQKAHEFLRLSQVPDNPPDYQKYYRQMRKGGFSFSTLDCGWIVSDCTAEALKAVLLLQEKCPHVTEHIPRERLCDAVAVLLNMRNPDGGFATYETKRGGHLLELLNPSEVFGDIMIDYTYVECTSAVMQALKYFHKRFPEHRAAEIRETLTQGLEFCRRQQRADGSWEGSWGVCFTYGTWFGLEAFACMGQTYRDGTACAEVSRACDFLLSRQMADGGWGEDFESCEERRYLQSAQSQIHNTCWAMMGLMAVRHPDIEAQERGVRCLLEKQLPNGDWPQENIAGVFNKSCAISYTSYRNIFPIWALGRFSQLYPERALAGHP

[2] = target: T1, Lanosterol synthase (Homo sapiens); assay: Inhibitory activity against lanosteral synthase at 0.25 umol/assay; design: scale not given: the % may be the effect or the level left
Beta-secretase 1 = Beta-secretase 1 (Homo sapiens, UniProt P56817); assay: Binding affinity against human brain memapsin 2; type: tissue-based
Chain of Beta-secretase 1 (P56817 whole entry): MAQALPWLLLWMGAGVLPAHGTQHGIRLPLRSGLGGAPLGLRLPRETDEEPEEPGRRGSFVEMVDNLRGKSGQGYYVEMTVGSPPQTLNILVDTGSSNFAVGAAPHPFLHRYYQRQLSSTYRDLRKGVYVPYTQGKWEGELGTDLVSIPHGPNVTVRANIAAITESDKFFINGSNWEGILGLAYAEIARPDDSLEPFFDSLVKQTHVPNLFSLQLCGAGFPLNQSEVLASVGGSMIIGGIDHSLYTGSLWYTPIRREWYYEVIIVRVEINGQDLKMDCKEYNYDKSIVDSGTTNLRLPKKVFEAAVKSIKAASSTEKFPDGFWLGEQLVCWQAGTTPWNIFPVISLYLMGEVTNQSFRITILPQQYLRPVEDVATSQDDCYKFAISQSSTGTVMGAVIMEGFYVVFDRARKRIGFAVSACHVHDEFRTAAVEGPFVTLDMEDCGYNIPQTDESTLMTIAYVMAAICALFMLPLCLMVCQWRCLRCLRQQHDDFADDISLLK

[3] = target: T1, Lanosterol synthase (Homo sapiens); assay: Inhibitory activity against lanosteral synthase at 0.5 umol/assay; n.d. = not detected
[4] = target: T1, Lanosterol synthase (Homo sapiens); assay: Inhibitory activity against lanosteral synthase at 0.25 umol/assay; n.d. = not detected
[5] = target: T1, Lanosterol synthase (Homo sapiens); assay: Inhibitory activity against lanosteral synthase at 0.4 umol/assay; design: scale not given: the % may be the effect or the level left

| SMILES | Activity [1] [%] | Activity [2] [%] | further results |
| --- | --- | --- | --- |
| C=CCNC(=O)C[C@H](NC(=O)C(NC(=O)OCC=C)C(C)C)C(=O)N[C@@H](CC(C)C)[C@@H](O)C[C@@H](C)C(=O)N[C@H](C(=O)NCc1ccccc1)C(C)C (stereo partly specified) | – | – | Ki (Beta-secretase 1): 26.6 nM |
| CC/C=C\C/C=C\C/C=C\CCCCCCCC(=O)OC(COC(=O)CCCCCCC/C=C/CCCCCCCC)CO[C@@H]1O[C@H](CO[C@H]2O[C@H](CO)[C@H](O)C(O)[C@H]2O)[C@H](O)C(O)[C@H]1O (single isomer, unassigned; 2f) | 40 | 9 | – |
| OCC(O)CO[C@@H]1O[C@H](CO[C@H]2O[C@H](CO)[C@H](O)[C@H](O)[C@H]2O)[C@H](O)[C@H](O)[C@H]1O (stereo partly specified) | – | – | Activity [3]: Not detected; Activity [4]: Not detected |
| CC/C=C\C/C=C\C/C=C\CCCCCCCC(=O)OCC(CO[C@@H]1O[C@H](CO[C@H]2O[C@H](CO)[C@H](O)C(O)[C@H]2O)[C@H](O)C(O)[C@H]1O)OC(=O)CCCCCCC/C=C\C/C=C\C/C=C\CC (single isomer, unassigned; 2d) | 45 | 18 | – |
| CC/C=C\C/C=C\C/C=C\CCCCCCCC(=O)OC(COC(=O)CCCCCCCCCCCCC)CO[C@@H]1OC(CO)[C@H](O)[C@@H](O)C1O (stereo partly specified) | – | – | Activity [5]: 23% |
| CC/C=C\C/C=C\C/C=C\CCCCCCCC(=O)OCC(CO[C@@H]1O[C@H](CO[C@H]2O[C@H](CO)[C@H](O)C(O)[C@H]2O)[C@H](O)C(O)[C@H]1O)OC(=O)CCCCCCC/C=C/CCCCCCCC (single isomer, unassigned) | 31 | 8 | – |
| CC/C=C\C/C=C\C/C=C\CCCCCCCC(=O)OC(COC(=O)CCCCCCC/C=C/CCCCCCCC)CO[C@@H]1O[C@H](CO[C@H]2O[C@H](CO)[C@H](O)C(O)[C@H]2O)[C@H](O)C(O)[C@H]1O (single isomer, unassigned; 2i) | 29 | 7 | – |
| CC/C=C\C/C=C\C/C=C\CCCCCCCC(=O)OCC(CO[C@@H]1O[C@H](CO)[C@H](O)C(O)[C@H]1O)OC(=O)CCCCCCC/C=C\CCCCCCCC (single isomer, unassigned) | – | – | Activity [5]: 19% |
| CC/C=C\C/C=C\C/C=C\CCCCCCCC(=O)OC(COC(=O)CCCCCCC/C=C\CCCCCC)CO[C@@H]1O[C@H](CO)[C@H](O)C(O)[C@H]1O (single isomer, unassigned) | – | – | Activity [5]: 16% |

The next lines start with results.

| Activity [1] [%] | Activity [2] [%] | SMILES | further results |
| --- | --- | --- | --- |
| 24 | 4 | CCCCCC/C=C\CCCCCCCC(=O)OCC(CO[C@@H]1O[C@H](CO[C@H]2O[C@H](CO)[C@H](O)[C@H](O)[C@H]2O)[C@H](O)[C@H](O)[C@H]1O)OC(=O)CCCCCCC/C=C\CCCCCC (stereo partly specified) | – |
| 72 | 51 | CCCCCCCCCCCCCC(=O)OCC(CO[C@@H]1O[C@H](CO[C@H]2O[C@H](CO)[C@H](O)C(O)[C@H]2O)[C@H](O)C(O)[C@H]1O)OC(=O)CCCCCCCCCCCCC (single isomer, unassigned) | – |
| 45 | 35 | CCCCCC/C=C\CCCCCCCC(=O)OC(COC(=O)CCCCCCCCCCCCC)CO[C@@H]1OC(CO[C@H]2OC(CO)[C@H](O)[C@@H](O)C2O)[C@H](O)[C@@H](O)C1O (stereo partly specified) | – |
| 27 | 3 | CC/C=C\C/C=C\C/C=C\CCCCCCCC(=O)OCC(CO[C@@H]1O[C@H](CO[C@H]2O[C@H](CO)[C@H](O)C(O)[C@H]2O)[C@H](O)C(O)[C@H]1O)OC(=O)CCCCCCC/C=C\CCCCCC (single isomer, unassigned; 2j) | – |
| 26 | 5 | CC/C=C\C/C=C\C/C=C\CCCCCCCC(=O)OCC(CO[C@@H]1O[C@H](CO[C@H]2O[C@H](CO)[C@H](O)C(O)[C@H]2O)[C@H](O)C(O)[C@H]1O)OC(=O)CCCCCCC/C=C\CCCCCC (single isomer, unassigned; 2l) | – |
| 21 | 4 | CCCCCC/C=C\CCCCCCCC(=O)OCC(CO[C@@H]1O[C@H](CO[C@H]2O[C@H](CO)[C@H](O)[C@H](O)[C@H]2O)[C@H](O)[C@H](O)[C@H]1O)OC(=O)CCCCCCC/C=C/CCCCCCCC (stereo partly specified) | – |
| 38 | 22 | CC/C=C\C/C=C\C/C=C\CCCCCCCC(=O)OCC(CO[C@@H]1OC(CO[C@H]2OC(CO)[C@H](O)[C@@H](O)C2O)[C@H](O)[C@@H](O)C1O)OC(=O)CCCCCCCCCCCCC (stereo partly specified) | – |
| 20 | – | CC/C=C\C/C=C\C/C=C\CCCCCCCC(=O)OC(COC(=O)CCCCCCC/C=C\CCCCCC)CO[C@@H]1O[C@H](CO[C@H]2O[C@H](CO)[C@H](O)[C@H](O)[C@H]2O)[C@H](O)[C@H](O)[C@H]1O (stereo partly specified) | Activity [4]: Not detected |
| 26 | – | CC/C=C\C/C=C\C/C=C\CCCCCCCC(=O)OCC(CO[C@@H]1O[C@H](CO[C@H]2O[C@H](CO)[C@H](O)C(O)[C@H]2O)[C@H](O)C(O)[C@H]1O)OC(=O)CCCCCCC/C=C\C/C=C\C/C=C\CC (single isomer, unassigned; 2k) | Activity [4]: Not detected |
| 57 | 42 | CCCCCCCC/C=C/CCCCCCCC(=O)OCC(CO[C@@H]1O[C@H](CO[C@H]2O[C@H](CO)[C@H](O)C(O)[C@H]2O)[C@H](O)C(O)[C@H]1O)OC(=O)CCCCCCC/C=C/CCCCCCCC (single isomer, unassigned) | – |
| 46 | 24 | CCCCCC/C=C/CCCCCCCC(=O)OC(COC(=O)CCCCCCC/C=C/CCCCCCCC)CO[C@@H]1O[C@H](COC2O[C@H](CO)[C@H](O)C(O)[C@H]2O)[C@H](O)C(O)[C@H]1O (single isomer, unassigned) | – |
